Here are results for 24 compounds from patent US8080552B2, “Pyrimidyl derivatives as protein kinase inhibitors” (Hoffmann-LA Roche Inc., priority 2006, dated 2011).

Assay [1] concerns HCT 116 cells. The assay is described as follows: CellTiter-Glo assay in HCT 116 cells. The assay is classed as cell-based. To be noted: 120 h; HCT 116 human colon carcinoma cells, 5 days incubation, cell viability (ATP luminescence). An excerpt:
CellTiter-Glo™ Assay in HCT 116 Cells:
The CellTiter-Glo™ Luminescent Cell Viability Assay (Promega) is a homogeneous method of determining the number of viable cells in culture based on quantitation of the ATP present, which signals the presence of metabolically active cells.
HCT 116 cells (human colon carcinoma, ATCC-No. CCl-247) were cultivated in RPMI 1640 medium with GlutaMAX™ I (Invitrogen, Cat-No. 61870-010), 5% Fetal Calf Serum (FCS, Sigma Cat-No. F4135 (FBS)); 100 Units/ml penicillin/100 μg/ml streptomycin (=Pen/Strep from Invitrogen Cat. No. 15140). For the assay the cells were seeded in 384 well plates, 1000 cells per well, in the same medium. The next day the test compounds were added in various concentrations ranging from 30 μM to 0.0015 μM (10 concentrations, 1:3 diluted). After 5 days the CellTiter-Glo™ assay was done according to the instructions of the manufacturer (CellTiter-Glo™ Luminescent Cell Viability Assay, from Promega). In brief: the cell-plate was equilibrated to room temperature for approximately 30 minutes and than the CellTiter-Glo™ reagent was added. The contents were carefully mixed for 15 minutes to induce cell lysis. After 45 minutes the luminescent signal was measured in Victor 2, (scanning multiwell spectrophotometer, Wallac).
• Medium: RPMI 1640 with GlutaMAX™ I (Invitrogen, Cat-Nr. 61870), 5% FCS (Sigma Cat.-No. F4135), Pen/Strep (Invitrogen, Cat No. 15140). • HCT116 (ATCC-No. CCl-247): 1000 cells in 60 μl per well of 384 well plate (Greiner 781098, μClear-plate white) • After seeding incubate plates 24 h at 37° C., 5% CO2 2nd. Day: Induction (Treatment with Compounds, 10 Concentrations):
In order to achieve a final concentration of 30 μM as highest concentration 3.5 μl of 10 mM compound stock solution were added directly to 163 μl media. Then step e) of the dilution procedure described below, was followed.
In general terms: In ATP-based viability assays light output follows the ATP content of the culture.

The subject of assay [2] is VEGF-induced HUVEC cells. The assay can be described thus: CellTiter-Glo assay in VEGF-induced HUVEC cells. In kind it is cell-based. The settings on record: Homo sapiens; Table 2; VEGF-induced (20 ng/ml) HUVEC cells, 72 hours, cell viability (ATP luminescence); read-out: IC50 HCT 116. As to the method:
CellTiter-Glo™ Assay in VEGF-Induced HUVEC Cells:
HUVEC-c (Human Umbilical Vein Endothelial Cells, from Promocell Cat-No. C-12200) cells were trypsinized, spinned down and plated in 384-well plates at 1500 cells per well in 60 μl endothelial basal medium (EBM-2 from Promocell, Cat-No. C-22211) with 0.5% Fetal Calf Serum (FCS, Sigma Cat-No. F4135 (FBS)). Cells were incubated overnight at 37° C., and the next day, test compounds (stock solution 140 μmol/l in medium with 4.2% dimethylsulfoxide (DMSO)) were added in 5 μl medium over a final concentration range of 10 μmol/l to 0.5 nmol/l and 0.3% DMSO. Compounds were tested in triplicates. After 2 hrs 5 μl VEGF (VEGF 165, R&D Systems, Cat-No. 293-VE-010, stock solution 280 ng/ml in medium) was added to a final concentration of 20 ng/ml. Cells were incubated for 72 hours at 37° C. in medium. Cell number was quantitated using CellTiter-Glo™ Luminescent Cell Viability Assay (from Promega) according to the instructions of the supplier. This assay measures the number of viable cells per well by measurement of luminescent signal based on amount of cellular ATP. IC50 are determined using a non-linear curve fit (XLfit software (ID Business Solution Ltd., Guilford, Surrey, UK)) (see also CellTiter-Glo™ assay in HCT 116 cells above).

The term IC50 denotes the concentration that gives 50% inhibition.

Consider `O=C(Nc1ccccc1)Nc1ccc(Oc2ccnc(NCCCO)n2)cc1` [Example 13, 1-{4-[2-(3-Hydroxy-propylamino)-pyrimidin-4-yloxy]-phenyl}-3-phenyl-urea], for which the IC50 in assay [1] lay in the range of 300 to 10000 nM; in assay [2], 5 to 750 nM.

For the compound `O=C(Nc1ccc(Cl)c(C(F)(F)F)c1)Nc1ccc(Oc2ccnc(NCCCO)n2)cc1F` [Example 18, 1-(4-Chloro-3-trifluoromethyl-phenyl)-3-{2-fluoro-4-[2-(3-hydroxy-propylamino)-pyrimidin-4-yloxy]-phenyl}-urea], the IC50 in assay [1] lay within 300 to 10000 nM; in assay [2] it was 5 to 750 nM. In the case of `O=C(Nc1ccc(Oc2ccnc(NCCCO)n2)c(Cl)c1)Nc1ccc(Cl)c(C(F)(F)F)c1` [Example 15, 1-(4-Chloro-3-trifluoromethyl-phenyl)-3-{3-chloro-4-[2-(3-hydroxy-propylamino)-pyrimidin-4-yloxy]-phenyl}-urea], the IC50 in assay [2] lay within 5 to 750 nM. As to `O=C(Nc1ccc(Oc2cc(NCCO)ncn2)cc1)Nc1ccc(Cl)c(C(F)(F)F)c1` [Example 22, 1-(4-Chloro-3-trifluoromethyl-phenyl)-3-{4-[6-(2-hydroxy-ethylamino)-pyrimidin-4-yloxy]-phenyl}-urea], the IC50 lay in the range of 300 to 10000 nM in assay [1] and 5 to 750 nM in assay [2]. For the compound `O=C(Nc1ccc(Oc2ccnc(NCCCO)n2)cc1)Nc1cccc(OC(F)(F)F)c1` [Example 2, 1-{4-[2-(3-Hydroxy-propylamino)-pyrimidin-4-yloxy]-phenyl}-3-(3-trifluoromethoxy-phenyl)-urea], the figures for the IC50 in assay [1] and in assay [2] were 670 nM and 5 to 750 nM, respectively. Take `C[Si](C)(C)c1ccc(NC(=O)Nc2ccc(Oc3ccnc(NCCCO)n3)cc2)cc1` [Example 14, 1-{4-[2-(3-Hydroxy-propylamino)-pyrimidin-4-yloxy]-phenyl}-3-(4-trimethylsilanyl-phenyl)-urea]: the IC50 was 1520 nM in assay [1] and 5 to 750 nM in assay [2].

As to `CC(O)CCNc1nccc(Oc2ccc(NC(=O)Nc3ccc(Cl)c(C(F)(F)F)c3)cc2)n1` (centres unmarked) [Example 12, 1-(4-Chloro-3-trifluoromethylphenyl)-3-{4-[2-(3-hydroxy-butylamino)-pyrimidin-4-yloxy]-phenyl}-urea], the IC50 lay in the range of 300 to 10000 nM in assay [1] and 5 to 750 nM in assay [2]. Consider `COc1ccc(C(F)(F)F)cc1NC(=O)Nc1ccc(Oc2ccnc(NCCCO)n2)cc1` [Example 1, 1-{4-[2-(3-Hydroxy-propylamino)-pyrimidin-4-yloxy]-phenyl}-3-(2-methoxy-5-trifluoromethyl-phenyl)-urea], for which the IC50 in assay [2] turned out to be 67 nM. `CC(C)(C#N)c1ccc(NC(=O)Nc2ccc(Oc3ccnc(NCCCO)n3)cc2)cc1` [Example 24, 1-[4-(Cyano-dimethyl-methyl)-phenyl]-3-{4-[2-(3-Hydroxy-propylamino)-pyrimidin-4-yloxy]-phenyl}-urea] registered an IC50 in assay [1] of 300 to 10000 nM. Take `O=C(Nc1ccc(Oc2ccnc(NCCCCO)n2)cc1)Nc1ccc(Cl)c(C(F)(F)F)c1` [Example 10, 1-(4-Chloro-3-trifluoromethylphenyl)-3-{4-[2-(4-hydroxy-butylamino)-pyrimidin-4-yloxy]-phenyl}-urea]: the IC50 was in the range of 300 to 10000 nM in assay [1] and 5 to 750 nM in assay [2].

For `O=C(Nc1ccc(Oc2cc(NCCCO)ncn2)cc1)Nc1cccc(C(F)(F)F)c1` [Example 21, 1-{4-[6-(3-Hydroxy-propylamino)-pyrimidin-4-yloxy]-phenyl}-3-(3-trifluoromethyl-phenyl)-urea], the IC50 in assay [1] was in the range of 300 to 10000 nM; in assay [2], 5 to 750 nM. `CC(C#N)c1cccc(NC(=O)Nc2ccc(Oc3ccnc(NCCCO)n3)cc2)c1` (centres unmarked) [Example 26, 1-[3-(Cyano-methyl-methyl)-phenyl]-3-{4-[2-(3-hydroxy-propylamino)-pyrimidin-4-yloxy]-phenyl}-urea]: the IC50 in assay [1] lay in the range of 300 to 10000 nM; in assay [2], 5 to 750 nM. For `O=C(Nc1ccc(Oc2ccnc(NCCCO)n2)c(F)c1)Nc1ccc(Cl)c(C(F)(F)F)c1` [Example 17, 1-(4-Chloro-3-trifluoromethyl-phenyl)-3-{3-fluoro-4-[2-(3-hydroxy-propylamino)-pyrimidin-4-yloxy]-phenyl}-urea], the results for the concentration for half-maximal inhibition (IC50) in assay [1] and in assay [2] were 300 to 10000 nM and 5 to 750 nM, respectively. For `O=C(Nc1ccc(Oc2ccnc(NCCO)n2)cc1)Nc1ccc(Cl)c(C(F)(F)F)c1` [Example 11, 1-(4-Chloro-3-trifluoromethylphenyl)-3-{4-[2-(2-hydroxy-ethylamino)-pyrimidin-4-yloxy]-phenyl}-urea], the half-maximal inhibitory concentration (IC50) in assay [1] lay within 300 to 10000 nM. `O=C(Nc1ccc(Oc2ccnc(NCCCO)n2)cc1)Nc1ccc(OC(F)(F)F)cc1` [Example 3, 1-{4-[2-(3-Hydroxy-propylamino)-pyrimidin-4-yloxy]-phenyl}-3-(4-trifluoromethoxy-phenyl)-urea]: the figures for the IC50 in assay [1] and in assay [2] were 300 to 10000 nM and 5 to 750 nM, respectively. As to `O=C(Nc1ccc(Oc2cc(NCCCO)ncn2)cc1)Nc1ccc(Cl)c(C(F)(F)F)c1` [Example 23, 1-(4-Chloro-3-trifluoromethyl-phenyl)-3-{4-[6-(3-hydroxy-propylamino)-pyrimidin-4-yloxy]-phenyl}-urea], the IC50 in assay [2] was in the range of 5 to 750 nM. As to `O=C(Nc1ccc(Oc2ccnc(NCCCO)n2)cc1)Nc1cccc(C(F)(F)F)c1` [Example 7, 1-{4-[2-(3-Hydroxy-propylamino)-pyrimidin-4-yloxy]-phenyl}-3-(3-trifluoromethyl-phenyl)-urea], the values for the concentration for half-maximal inhibition (IC50) in assay [1] and in assay [2] were 300 to 10000 nM and 5 to 750 nM, respectively. On to `CC(C)(C#N)c1cccc(NC(=O)Nc2ccc(Oc3ccnc(NCCCO)n3)cc2)c1` [Example 25, 1-[3-(Cyano-dimethyl-methyl)-phenyl]-3-{4-[2-(3-hydroxy-propylamino)-pyrimidin-4-yloxy]-phenyl}-urea], for which the IC50 in assay [1] lay within 300 to 10000 nM; in assay [2], 5 to 750 nM. Turning to `CC(C)(C)c1ccc(NC(=O)Nc2ccc(Oc3ccnc(NCCCO)n3)cc2)cc1` [Example 5, 1-(4-tert-Butyl-phenyl)-3-{4-[2-(3-Hydroxy-propylamino)-pyrimidin-4-yloxy]-phenyl}-urea], in assay [2], the IC50 was in the range of 5 to 750 nM. As for `O=C(Nc1ccc(Oc2ccnc(NCCCO)n2)cc1)Nc1cc(C(F)(F)F)ccc1F` [Example 8, 1-(2-Fluoro-5-trifluoromethyl-phenyl)-3-{4-[2-(3-Hydroxy-propylamino)-pyrimidin-4-yloxy]-phenyl}-urea], the IC50 in assay [1] lay in the range of 300 to 10000 nM; in assay [2], 5 to 750 nM.

Regarding `CC(C)(C)c1cccc(NC(=O)Nc2ccc(Oc3ccnc(NCCCO)n3)cc2)c1` [Example 4, 1-(3-tert-Butyl-phenyl)-3-{4-[2-(3-Hydroxy-propylamino)-pyrimidin-4-yloxy]-phenyl}-urea], the IC50 fell in the range of 300 to 10000 nM in assay [1] and 5 to 750 nM in assay [2]. Take `O=C(Nc1ccc(Cl)cc1)Nc1ccc(Oc2ccnc(NCCCO)n2)cc1` [Example 6, 1-(4-Chloro-phenyl)-3-{4-[2-(3-hydroxy-propylamino)-pyrimidin-4-yloxy]-phenyl}-urea]: the figures for the IC50 in assay [1] and in assay [2] were 300 to 10000 nM and 257 nM, respectively. Take `CC1(C)CNc2cc(NC(=O)Nc3ccc(Oc4ccnc(NCCCO)n4)cc3)ccc21` [Example 29, 1-(3,3-Dimethyl-2,3-dihydro-1H-indol-6-yl)-3-{4-[2-(3-hydroxy-propylamino)-pyrimidin-4-yloxy]-phenyl}-urea]: the IC50 in assay [1] lay within 300 to 10000 nM; in assay [2], 5 to 750 nM. In the case of `O=C(Nc1ccc(Oc2ccnc(NCCCO)n2)cc1)Nc1cc(C(F)(F)F)ccc1Cl` [Example 19, 1-(2-Chloro-5-trifluoromethyl-phenyl)-3-{4-[2-(3-hydroxy-propylamino)-pyrimidin-4-yloxy]-phenyl}-urea], the IC50 in assay [2] lay in the range of 5 to 750 nM.
